Reference: PMC6003569, “Novel fluorinated carbonic anhydrase IX inhibitors reduce hypoxia-induced acidification and clonogenic survival of cancer cells” (Oncotarget, 2018)
Entries after “also recorded” stand apart in the source; their conditions may differ. Read-outs that look alike come from different tables or passages of the source.

Columns and labels:
H460 cells [1] = assay: alamarBlue cell viability assay; assay type: cell-based; conditions: Homo sapiens, NCI-H460, 72 h
Description: (§3) Cytotoxicity of inhibitors was determined by the alamarBlue® cell viability assay (Life Technologies). […] Briefly, cells were seeded in 96-well plates and allowed to attach overnight in normoxia. […] After 72 h, cells were incubated with 10% alamarBlue® for 2 h under normoxia at 37° C. The fluorescence signal was measured using the multi-mode microplate reader (FLUOstar® Omega, BMG Labtech) at 580 nm (excitation wavelength 540 nm). Response to treatments was quantified by evaluating EC50 values (concentration of inhibitor that leads to half-maximum viability response determined by Hill fit).

MDA-MB-231 cells = assay: alamarBlue cell viability assay; assay type: cell-based; conditions: Homo sapiens, MDA-MB-231, 72 h
Description: as §3

HeLa cells [2] = assay: Extracellular acidification (pH) assay; assay type: cell-based, human; conditions: for hypoxia-induced extracellular acidification: hypoxia 0.2% O2, 72 h, 5–50 μM; for effect on extracellular acidification under normoxia: normoxia 21% O2, 72 h
AsPC-1 cells [3] = assay: alamarBlue cell viability assay; assay type: cell-based; conditions: Homo sapiens, ASPC1, 48 h
Description: as §3

[4] = test system: CA activity in hypoxic HeLa CA IX KO cells; assay: CA catalytic activity via MS gas-analysis, CA IX knockout cells; assay type: cell-based, human; conditions: both HeLa CA IX KO lines
Description: The reaction sequence of ^18O loss from ^13C^18O^18O (m/z = 49) over the intermediate product ^13C^18O^16O (m/z = 47) and the end product ^13C^16O^16O (m/z = 45) was monitored with a quadrupole mass spectrometer (OmniStar GSD 320; Pfeiffer Vacuum, Asslar, Germany). The relative ^18O enrichment was calculated from the measured 45, 47, and 49 m/z abundance as a function of time according to: log enrichment = log (49×100/(49+47+45)). For the calculation of CA activity, the rate of ^18O depletion was obtained from the linear slope of the log enrichment over the time, using OriginPro 8.6 (OriginLab Corporation). The rate was compared with the corresponding rate of the non-catalyzed reaction. Enzyme activity in units (U) was calculated from these two values as defined by Badger and Price [59]. […] For every measurement, the non-catalyzed reaction was determined for 6 min in the presence of inhibitor, before cell suspension was added to the measuring cuvette and the catalyzed reaction was determined for 8 min. […] IC50 values were determined by Hill equation using OriginPro 8.6. To investigate specificity of the inhibitors in HeLa WT and HeLa CA IX KO cells, the non-catalyzed reaction was determined for 6 min in the absence of inhibitor, before a suspension of 5 × 10^6 cells was added to the measuring cuvette. […]

HeLa cells [5] = assay: alamarBlue cell viability assay; assay type: cell-based, human; conditions: 72 h; for EC50: Homo sapiens, HeLa
Description: as §3

A549 cells = assay: alamarBlue cell viability assay; assay type: cell-based; conditions: Homo sapiens, A549, 72 h
Description: as §3

[6] = test system: 4 investigated cell lines; assay: Extracellular acidification (pH) assay, cell line panel; assay type: cell-based, human; conditions: 50 μM, hypoxia 0.2% O2, 72 h
Description: HeLa, H460, MDA-MB-231, and AsPC-1 cells were cultured in DMEM (Lonza) supplemented with 10% FBS (Lonza), whereas A549 cells were grown in-house made analogous medium differing only by a lower amount of sodium bicarbonate (final concentration 10 mM). Cell densities for each cell line were optimized to get ~100% confluence at the end of experiment under normoxic and hypoxic (0.2% O2) conditions upon vehicle (0.05% DMSO) treatment. Such conditions were necessary to obtain the highest possible level of CA IX-dependent extracellular acidification. Cells were plated in 6 cm dishes and allowed to attach overnight in normoxia. […] Results are shown as a difference between the pH of medium in the control plate (without seeded cells) and the pH of medium in the targeted plate (cells exposed to the compound or vehicle).

AsPC-1 cells [7] = assay: Extracellular acidification (pH) assay; assay type: cell-based, human; conditions: AsPC-1, hypoxia 0.2% O2, 72 h
CA IX [8] = molecular target: T1, CA IX (Homo sapiens, UniProt Q16790); assay: Stopped-flow CO2 hydration inhibition assay (SFA); assay type: biochemical; conditions: pH 7.5, 25° C, value in parentheses
T1 construct: 12 recombinant catalytic domains of human active CA isoforms as determined by FTSA
Description: (§1) The enzymatic activity of carbonic anhydrase isoforms and their inhibition was determined by the stopped-flow CO2 hydration assay where the formed acid was followed by the absorbance change of a pH indicator. The Applied Photophysics SX.18MV-R stopped-flow spectrometer was used to measure the absorbance change of Phenol-Red pH indicator at 557 nm. Saturated CO2 solution was prepared by bubbling the CO2 gas in MilliQ water at 25° C for 1 h. Experiments were performed at 25° C using 25 mM Hepes buffer containing 50 mM NaCl (pH 7.5), 0–10 μM compound with the final 0.4% (v/v) DMSO concentration. The final enzyme concentration was 10 nM for CA IX and 20 nM for CA XII. Raw curves of absorbance change were analyzed using Origin 8.1 (OriginLab Corporation) and the slope values were used to evaluate the rates of CO2 hydration. Spontaneous CO2 hydration rate was used as a zero value, while the CA catalyzed reaction rate - as a maximum value.

CA XII [9] = molecular target: T2, CA XII (Homo sapiens, UniProt O43570); assay: Stopped-flow CO2 hydration inhibition assay (SFA); assay type: biochemical; conditions: pH 7.5, 25° C, value in parentheses
T2 construct: 12 recombinant catalytic domains of human active CA isoforms as determined by FTSA
Description: as §1

H460 spheroids = assay: Clonogenic cell survival assay, 3D spheroids; assay type: cell-based, human; conditions: non-hypoxic (day 4) versus hypoxic (day 11) H460 spheroids, 5–15 μM, 24 h
Description: Clonogenic survival of HeLa cell monolayers was evaluated using cell densities applied in the extracellular acidification assay to determine the effect of inhibitors on the clonogenic cell survival while having the same acidification conditions. […] Then cells were trypsinized, reseeded in triplicate with known cell densities and allowed to form colonies for 14 days. […] Single cell suspensions were prepared and cells were plated in triplicate with known cell densities and allowed to form colonies for 14 days. […] Surviving fraction was normalized to vehicle (DMSO). To prepare plates for the growth of attachment-free H460 spheroids, autoclaved 1.5% w/v agarose (Sigma-Aldrich) was dispensed in the inner 60 wells of 96-well plates (50 μL/well) and left for polymerization at room temperature for 30 min. H460 cells were plated in modified 96-well plates to the surface of agarose menisci with a density of 500 cells/well. The DMEM was refreshed every two days. After 7 or 11 days in culture, spheroids were incubated with 20 μg/mL pimonidazole (PIMO, Hypoxyprobe-1, HP-1000, BioConnect) for 2 h at 37° C, collected and cryoconserved for immunofluorescence analysis (see below).

CA I = molecular target: T3, CA I (Homo sapiens, UniProt P00915); assay: Fluorescent thermal shift assay (FTSA); assay type: binding; conditions: pH 7.0, 37° C
T3 construct: 12 recombinant catalytic domains of human active CA isoforms as determined by FTSA
Description: (§2) The binding affinity of synthesized compounds to recombinant human CAs was measured by the fluorescent thermal shift assay (FTSA) where the thermal stabilization of the protein by the compound was determined by following the fluorescence dependence on temperature at various added compound concentrations. The melting temperature (Tm) of CA was measured using the Corbett Rotor-Gene 6000 instrument (QIAGEN Rotor-Gene Q, excitation at 365 ± 20 nm, emission detection at 460 ± 15 nm). The protein was heated from 25 to 99° C at a rate of 1° C/min and the fluorescence change of the solvatochromic dye 8-anilino-1-naphthalene sulfonate (ANS) was followed. The samples consisted of 5–10 μM CA, 0–200 μM ligand, 50 μM ANS, and 50 mM sodium phosphate buffer containing 100 mM NaCl at pH 7.0, with the final DMSO concentration of 2% (v/v). Protein unfolding profiles and the melting temperatures were determined at each ligand concentration while recording extrinsic fluorescence of ANS. Data analysis was performed as previously described. All experiments were repeated at least twice.

CA VB = molecular target: T4, CA VB (Homo sapiens, UniProt Q9Y2D0); assay: Fluorescent thermal shift assay (FTSA); assay type: binding; conditions: pH 7.0, 37° C
T4 construct: 12 recombinant catalytic domains of human active CA isoforms as determined by FTSA
Description: as §2

CA IX [10] = molecular target: T1, CA IX; assay: Fluorescent thermal shift assay (FTSA); assay type: binding; conditions: pH 7.0, 37° C
Description: as §2

CA IV = molecular target: T5, CA IV (Homo sapiens, UniProt P22748); assay: Fluorescent thermal shift assay (FTSA); assay type: binding; conditions: pH 7.0, 37° C
T5 construct: 12 recombinant catalytic domains of human active CA isoforms as determined by FTSA
Description: as §2

CA XIII = molecular target: T6, CA XIII (Homo sapiens, UniProt Q8N1Q1); assay: Fluorescent thermal shift assay (FTSA); assay type: binding; conditions: pH 7.0, 37° C
T6 construct: 12 recombinant catalytic domains of human active CA isoforms as determined by FTSA
Description: as §2

CA XII [11] = molecular target: T2, CA XII; assay: Fluorescent thermal shift assay (FTSA); assay type: binding; conditions: pH 7.0, 37° C
Description: as §2

CA VA = molecular target: T7, CA VA (Homo sapiens, UniProt P35218); assay: Fluorescent thermal shift assay (FTSA); assay type: binding; conditions: pH 7.0, 37° C
T7 construct: 12 recombinant catalytic domains of human active CA isoforms as determined by FTSA
Description: as §2

CA VII = molecular target: T8, CA VII (Homo sapiens, UniProt P43166); assay: Fluorescent thermal shift assay (FTSA); assay type: binding; conditions: pH 7.0, 37° C
T8 construct: 12 recombinant catalytic domains of human active CA isoforms as determined by FTSA
Description: as §2

CA VI = molecular target: T9, CA VI (Homo sapiens, UniProt P23280); assay: Fluorescent thermal shift assay (FTSA); assay type: binding; conditions: pH 7.0, 37° C
T9 construct: 12 recombinant catalytic domains of human active CA isoforms as determined by FTSA
Description: as §2

CA II = molecular target: T10, CA II (Homo sapiens, UniProt P00918); assay: Fluorescent thermal shift assay (FTSA); assay type: binding; conditions: pH 7.0, 37° C
T10 construct: 12 recombinant catalytic domains of human active CA isoforms as determined by FTSA
Description: as §2

CA III = molecular target: T11, CA III (Homo sapiens, UniProt P07451); assay: Fluorescent thermal shift assay (FTSA); assay type: binding; conditions: pH 7.0, 37° C
T11 construct: 12 recombinant catalytic domains of human active CA isoforms as determined by FTSA
Description: as §2

CA XIV = molecular target: T12, CA XIV (Homo sapiens, UniProt Q9ULX7); assay: Fluorescent thermal shift assay (FTSA); assay type: binding; conditions: pH 7.0, 37° C
T12 construct: 12 recombinant catalytic domains of human active CA isoforms as determined by FTSA
Description: as §2

H460 cells [12] = assay: Extracellular acidification (pH) assay; assay type: cell-based, human; conditions: H460, hypoxia 0.2% O2, 72 h
[13] = test system: extracellular CA in intact hypoxic MDA-MB-231 cells; conditions: 1 μM; cited from earlier work
[14] = H460, 0.2% O2 (hypoxia), read-out: EC50
[15] = H460, 21% O2 (normoxia), read-out: EC50
[16] = 0.2% O2 (hypoxia), read-out: EC50
[17] = 21% O2 (normoxia), read-out: EC50

T2 sequence (O43570 30-289 limits assumed): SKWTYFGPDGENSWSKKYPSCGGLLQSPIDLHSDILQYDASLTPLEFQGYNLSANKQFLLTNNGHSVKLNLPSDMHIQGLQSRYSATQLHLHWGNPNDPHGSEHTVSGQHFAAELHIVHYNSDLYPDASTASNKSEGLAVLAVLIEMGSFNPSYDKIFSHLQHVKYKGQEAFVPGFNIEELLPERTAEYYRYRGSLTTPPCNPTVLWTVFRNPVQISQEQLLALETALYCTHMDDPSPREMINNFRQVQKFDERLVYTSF
T7 sequence (P35218 39-296 limits assumed): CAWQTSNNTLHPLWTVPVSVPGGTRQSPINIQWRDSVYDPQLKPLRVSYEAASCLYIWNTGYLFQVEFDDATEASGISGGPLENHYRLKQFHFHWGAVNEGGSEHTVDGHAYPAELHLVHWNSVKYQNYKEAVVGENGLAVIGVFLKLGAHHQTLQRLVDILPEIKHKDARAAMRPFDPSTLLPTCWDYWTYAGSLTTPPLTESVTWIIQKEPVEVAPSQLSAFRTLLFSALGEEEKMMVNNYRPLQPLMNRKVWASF
T12 sequence (Q9ULX7 20-278 limits assumed): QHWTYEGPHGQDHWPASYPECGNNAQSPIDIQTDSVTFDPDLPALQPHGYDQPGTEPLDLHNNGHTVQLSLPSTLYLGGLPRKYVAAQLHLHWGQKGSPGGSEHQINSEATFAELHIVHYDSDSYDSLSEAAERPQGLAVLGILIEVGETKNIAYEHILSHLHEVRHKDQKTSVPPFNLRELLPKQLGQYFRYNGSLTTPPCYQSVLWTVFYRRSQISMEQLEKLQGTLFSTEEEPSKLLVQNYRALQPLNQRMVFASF
T6 sequence (Q8N1Q1 4-261 limits assumed): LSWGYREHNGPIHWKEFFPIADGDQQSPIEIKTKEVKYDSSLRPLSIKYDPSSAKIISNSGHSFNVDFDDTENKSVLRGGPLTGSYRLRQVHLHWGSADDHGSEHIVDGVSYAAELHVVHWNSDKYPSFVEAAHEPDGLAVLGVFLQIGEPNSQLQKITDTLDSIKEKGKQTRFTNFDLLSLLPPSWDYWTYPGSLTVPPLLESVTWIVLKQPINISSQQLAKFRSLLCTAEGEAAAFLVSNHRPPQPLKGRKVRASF
T5 sequence (P22748 21-285 limits assumed): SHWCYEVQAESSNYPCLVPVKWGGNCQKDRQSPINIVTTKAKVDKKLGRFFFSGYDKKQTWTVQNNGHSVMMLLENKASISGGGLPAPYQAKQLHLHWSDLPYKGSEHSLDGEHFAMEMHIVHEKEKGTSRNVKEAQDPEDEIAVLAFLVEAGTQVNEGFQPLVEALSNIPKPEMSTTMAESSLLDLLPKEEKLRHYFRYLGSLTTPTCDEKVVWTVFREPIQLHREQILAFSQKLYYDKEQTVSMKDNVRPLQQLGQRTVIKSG
T9 sequence (P23280 21-278 limits assumed): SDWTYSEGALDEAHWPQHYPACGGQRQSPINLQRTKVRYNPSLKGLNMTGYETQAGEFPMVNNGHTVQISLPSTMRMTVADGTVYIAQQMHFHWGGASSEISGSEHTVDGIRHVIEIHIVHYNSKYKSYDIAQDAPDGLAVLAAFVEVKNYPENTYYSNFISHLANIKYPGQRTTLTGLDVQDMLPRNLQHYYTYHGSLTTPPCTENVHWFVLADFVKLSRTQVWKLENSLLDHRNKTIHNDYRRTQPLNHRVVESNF
T3 sequence (P00915 4-261 limits assumed): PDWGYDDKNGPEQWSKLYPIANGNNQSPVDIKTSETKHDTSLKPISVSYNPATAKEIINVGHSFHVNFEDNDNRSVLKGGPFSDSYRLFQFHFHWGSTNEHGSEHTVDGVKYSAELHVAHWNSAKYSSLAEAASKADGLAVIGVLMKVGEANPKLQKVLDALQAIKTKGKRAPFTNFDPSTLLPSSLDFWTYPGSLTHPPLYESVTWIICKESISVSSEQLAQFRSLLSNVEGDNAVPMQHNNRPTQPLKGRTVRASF
T11 sequence (P07451 3-259 limits assumed): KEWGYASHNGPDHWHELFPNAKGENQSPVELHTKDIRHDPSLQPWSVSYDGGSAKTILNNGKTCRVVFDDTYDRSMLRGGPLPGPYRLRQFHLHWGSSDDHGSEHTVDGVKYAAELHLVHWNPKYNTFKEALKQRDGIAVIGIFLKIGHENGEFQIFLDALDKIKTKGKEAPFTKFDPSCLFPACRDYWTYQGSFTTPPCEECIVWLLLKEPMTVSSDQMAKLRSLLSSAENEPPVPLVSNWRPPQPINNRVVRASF
T4 sequence (Q9Y2D0 37-296 limits assumed): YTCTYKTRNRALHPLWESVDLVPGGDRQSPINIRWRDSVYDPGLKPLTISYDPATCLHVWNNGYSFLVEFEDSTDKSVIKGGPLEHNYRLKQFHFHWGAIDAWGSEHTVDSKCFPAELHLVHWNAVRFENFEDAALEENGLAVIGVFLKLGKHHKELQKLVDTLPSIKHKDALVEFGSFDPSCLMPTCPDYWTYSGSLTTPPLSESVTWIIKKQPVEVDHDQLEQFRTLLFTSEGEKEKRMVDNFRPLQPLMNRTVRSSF
T8 sequence (P43166 5-262 limits assumed): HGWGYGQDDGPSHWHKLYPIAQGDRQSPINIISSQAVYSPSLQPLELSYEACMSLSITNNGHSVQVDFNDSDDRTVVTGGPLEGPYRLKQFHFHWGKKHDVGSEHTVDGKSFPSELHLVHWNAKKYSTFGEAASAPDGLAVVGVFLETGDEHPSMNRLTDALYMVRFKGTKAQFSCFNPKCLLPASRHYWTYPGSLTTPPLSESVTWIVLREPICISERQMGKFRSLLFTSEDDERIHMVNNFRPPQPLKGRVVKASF

Row | EC50 (H460 cells [1]; [14]) [µM] | EC50 (H460 cells [1]; [15]) [µM] | Ki (CA IX [8]) [µM] | EC50 (HeLa cells [5]; [16]) [µM] | EC50 (HeLa cells [5]; [17]) [µM] | Kd (CA I) [µM] | Kd (CA VB) [µM] | Kd (CA IX [10]) [µM] | Kd (CA IV) [µM] | Kd (CA XIII) [µM] | Kd (CA XII [11]) [µM] | Kd (CA VA) [µM] | Kd (CA VII) [µM] | Kd (CA VI) [µM] | Kd (CA II) [µM] | Kd (CA III) [µM] | Kd (CA XIV) [µM] | Structure (SMILES) | hypoxia-induced extracellular acidification (HeLa cells [2]) | effect on extracellular acidification under normoxia (HeLa cells [2]) | also measured
1 | – | – | – | – | – | – | – | – | – | – | – | – | – | – | – | – | – | NS(=O)(=O)c1c(F)c(F)c(SCCO)c(F)c1NC1CCCCCCC1 [VD12-09] | significantly (p < 0.05) reduced | negligible | EC50 (H460 cells [1]; H460, 0.2% O2 (hypoxia)): 37 ± 7.6 µM; EC50 (H460 cells [1]; H460, 21% O2 (normoxia)): 17.8 ± 2.2 µM; EC50 (MDA-MB-231 cells; MDA-MB-231, 0.2% O2 (hypoxia)): 67.6 ± 7.1 µM; EC50 (MDA-MB-231 cells; MDA-MB-231, 21% O2 (normoxia)): 55.4 ± 6.6 µM; EC50 (AsPC-1 cells [3]; AsPC-1, 0.2% O2 (hypoxia)): 83.3 ± 5.8 µM; EC50 (AsPC-1 cells [3]; AsPC-1, 21% O2 (normoxia)): 100 ± 20 µM; CA activity after addition of inhibitor ([4]; 30 μM): did not alter CA activity; EC50 (HeLa cells [5]; 0.2% O2 (hypoxia)): 46.9 ± 7 µM; EC50 (HeLa cells [5]; 21% O2 (normoxia)): 21.6 ± 4.1 µM; EC50 (A549 cells; A549, 0.2% O2 (hypoxia)): 98.8 ± 8.5 µM; EC50 (A549 cells; A549, 21% O2 (normoxia)): 33.8 ± 2.5 µM
2 | 40 ± 9.6 | 19.3 ± 3.6 | < 0.001 | 40.8 ± 9.6 | 20.2 ± 4.3 | ≥ 200 | 45 | 0.00016 | ≥ 200 | 0.02 | 0.71 | ≥ 200 | 37 | ≥ 200 | ≥ 200 | ≥ 200 | 0.17 | NS(=O)(=O)c1c(F)c(F)c(SCCc2ccc(C(=O)O)cc2)c(F)c1NC1CCCCCCCCCCC1 [VR16-09, 4-(2-{[4-(Aminosulfonyl)-3-(cyclododecylamino)-2,5,6-tetrafluorophenyl]thio}ethyl)benzoic acid] | significantly (p < 0.05) reduced | negligible | EC50 (MDA-MB-231 cells; MDA-MB-231, 0.2% O2 (hypoxia), read-out: EC50): 84.2 ± 4.9 µM; EC50 (MDA-MB-231 cells; MDA-MB-231, 21% O2 (normoxia), read-out: EC50): 74.2 ± 3.8 µM; hypoxia-induced acidosis [6]: significantly reduced; EC50 (AsPC-1 cells [3]; AsPC-1, 0.2% O2 (hypoxia), read-out: EC50): 160 ± 17 µM; EC50 (AsPC-1 cells [3]; AsPC-1, 21% O2 (normoxia), read-out: EC50): 153 ± 23 µM; hypoxia-induced acidosis (AsPC-1 cells [7]): increased; Ki (CA XII [9]): 0.1 µM; CA activity after addition of inhibitor ([4]; 300 nM): did not alter CA activity; clonogenic survival of cells derived from spheroids (H460 spheroids): hypoxia-dependent effect on clonogenic survival; EC50 (A549 cells; A549, 0.2% O2 (hypoxia), read-out: EC50): 76.7 ± 2.9 µM; EC50 (A549 cells; A549, 21% O2 (normoxia), read-out: EC50): 17 ± 1 µM
3 | > 150 | 83.3 ± 15.3 | < 0.001 | > 150 | 93.3 ± 5.8 | 5 | 0.1 | 0.0002 | 1.82 | 0.04 | 0.37 | 5 | 0.1 | 26.3 | 1 | ≥ 200 | 0.17 | NS(=O)(=O)c1c(F)c(F)c(SCCc2ccc(C(=O)O)cc2)c(F)c1NC1CCCCCCC1 [VR16-10, 4-(2-{[4-(Aminosulfonyl)-3-(cyclooctylamino)-2,5,6-tetrafluorophenyl]thio}ethyl)benzoic acid] | – | – | hypoxia-induced extracellular acidification (H460 cells [12]): Dose-dependent reduction; also recorded: smallest, albeit significant (p < 0.05), impact; Cytotoxic ratio (CR) of selectivity to hypoxia (HeLa cells [5]; human, HeLa cells): > 0.62
4 | – | – | – | – | – | – | – | – | – | – | – | – | – | – | – | – | – | CC(=O)Nc1nnc(S(N)(=O)=O)s1 [acetazolamide] | – | – | Extracellular CA activity [13]: significantly reduced
